What all share (assay): area under concentration-response curve (viability) (AUC (a.u.)); higher = less active
Holding throughout (conditions): 48 h

Assay [1] concerns CU-ACC2. The procedure, abridged: (§1)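 Luminescence from CellTiter-Glo, read after 48 h, measured three adrenocortical carcinoma cell lines treated in 1,536-well plates with library compounds at 11 concentrations. Values were normalised per plate to vehicle and empty-well controls. The AC50 and area under the curve come from fitted concentration-response curves in inhibitory or non-responding classes only.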

Assay [2] concerns CU-ACC1. The procedure, abridged: as §1
The test system of assay [3] is NCI-H295R. The method in brief: as §1

The results in this text go back to the supplement of paper PMC10949913.

`OC(Cn1cncn1)(Cn1cncn1)c1ccc(F)cc1F`: the “area under concentration-response curve” value in assay [1] turned out to be 546; in assay [2] it was 466; in assay [3], 514.
In the same order, the values of `CCNC(=O)Nc1ccc(Oc2ncnc(N)c2/C=N/OC)cc1Cl` are 645, 509 and 567.
As for `CCN1CCN(c2ccc(Nc3cc(N(C)C(=O)Nc4c(Cl)c(OC)cc(OC)c4Cl)ncn3)cc2)CC1`, the “area under concentration-response curve” value in assay [1] was determined as 580; in assay [2] it was 511; in assay [3], 479.
In the same order, the values of `N\C1=N\C2=C(N=C[N]2COC(CO)CO)C(=O)N1` are 645, 567 and 605.
Consider `C[C@@H]1C(=O)OC2[C@H](O)[C@]34[C@H]5C[C@@H](C(C)(C)C)[C@]36[C@@H](OC(=O)[C@@H]6O)O[C@@]4(C(=O)O5)[C@]21O` (some centres undefined), for which the results for the “area under concentration-response curve” value in assay [1], in assay [2] and in assay [3] were 556, 463 and 532, respectively.
Regarding `NCC1(CC(=O)O)CCCCC1`, the results for the “area under concentration-response curve” value in assay [1], in assay [2] and in assay [3] were 403, 315 and 412, respectively.
On to `CC(C)(CO)[C@@H](O)C(=O)NCCC(=O)O`, for which the “area under concentration-response curve” value in assay [1] was found to be 487; in assay [2] it was 506; in assay [3] it was 509.
The corresponding values for `COc1ccc(-n2cnc3cc(C(=O)N4CCCCC4)ccc32)cc1` are 534, 502 and 479.
On to `Clc1ccc(-c2nc3sccn3c2/C=N/OCc2ccc(Cl)c(Cl)c2)cc1`, for which the “area under concentration-response curve” value in assay [1] came out at 549; in assay [2], 490; in assay [3] it was 425.
The corresponding values for `Cc1cnc(C(=O)O)c[n+]1[O-]` are 579, 513 and 526.
Turning to `CC(C)Cn1cnc2c(N)nc3ccccc3c21`, the entries for the “area under concentration-response curve” value in assay [1], in assay [2] and in assay [3] were 683, 640 and 630, respectively.
For `Nc1nc(N)nc(-c2cc(Cl)ccc2Cl)n1`, the “area under concentration-response curve” value stood at 441 in assay [1], 409 in assay [2] and 410 in assay [3].
With `C[C@]1(c2nc3c(C(N)=O)cccc3[nH]2)CCCN1`, the “area under concentration-response curve” value is 564 in assay [1], 495 in assay [2] and 521 in assay [3].
On to `[2H]c1nc(C)nc([2H])c1-c1cc(NC[C@@H](C)c2cccc3c(C(=O)NC)ccnc23)ncn1`, for which the entries for the “area under concentration-response curve” value in assay [1], in assay [2] and in assay [3] were 629, 531 and 585, respectively.
Turning to `C[S+](=O)([O-])c1ccc(Oc2cc(F)cc(C#N)c2)c2c1[C@H](O)C(F)(F)C2`, the “area under concentration-response curve” value in assay [1] is 645; in assay [2] it was 571; in assay [3], 603.
`Cc1[nH]c(/C=C2\C(=O)Nc3ccccc32)c(C)c1CCC(=O)O`: the entries for the “area under concentration-response curve” value in assay [1], in assay [2] and in assay [3] were 535, 496 and 480, respectively.
Regarding `CSCC[C@@H](NC(=O)[C@@H](Cc1ccccc1)NC(=O)CNC(=O)CNC(=O)[C@@H](N)Cc1ccc(O)cc1)C(=O)O`, the “area under concentration-response curve” value amounted to 616 in assay [1], 535 in assay [2] and 566 in assay [3].
In the same order, the values of `COc1ccc([C@@H]2CNC(=O)C2)cc1OC1CCCC1` are 457, 432 and 516.
The corresponding values for `Cc1nnc(C(C)C)n1C1CC2CCC(C1)N2CCC(NC(=O)C1CCC(F)(F)CC1)c1ccccc1` (centres undefined) are 498, 478 and 451.
As to `CO[C@H]1/C=C/O[C@@]2(C)Oc3c(C)c(O)c4c(c3C2=O)C2=NC3(CCN(CC(C)C)CC3)NC2=C(NC(=O)/C(C)=C/C=C/[C@H](C)[C@H](O)[C@@H](C)[C@@H](O)[C@@H](C)[C@H](OC(C)=O)[C@@H]1C)C4=O`, the “area under concentration-response curve” value in assay [1] amounted to 607; in assay [2], 491; in assay [3], 530.
In the same order, the values of `CC(C[N+](C)(C)C)OC(N)=O` (centres undefined) are 662, 569 and 591.
Consider `Cc1c(C)c2c(c(C)c1O)CCC(C)(COc1ccc(CC3SC(=O)NC3=O)cc1)O2` (centres undefined), for which the “area under concentration-response curve” value was 511 in assay [1], 369 in assay [2] and 492 in assay [3].
The corresponding values for `Oc1ccc(-c2nc(-c3ccncc3)c(-c3ccc(F)cc3)[nH]2)cc1` are 574, 493 and 475.
The corresponding values for `O=C1N(c2ccccc2)c2ccccc2C1(Cc1ccncc1)Cc1ccncc1` are 543, 448 and 504.
Consider `CC(=O)NCCC(=O)N[C@@H](CCC(N)=O)C(=O)N[C@@H](CO)C(=O)N[C@@H](CCC(N)=O)C(=O)N[C@@H](CCC(N)=O)C(=O)N[C@H](C(=O)N[C@@H](Cc1ccccc1)C(=O)N[C@]1(C)CCCCCC/C=C\CCC[C@@](C)(C(=O)N[C@@H](CCC(N)=O)C(=O)N[C@@H](CC(N)=O)C(N)=O)NC(=O)[C@H](CC(C)C)NC(=O)[C@H](CC(C)C)NC(=O)[C@@H](CCCNC(=N)N)NC(=O)[C@H](Cc2c[nH]c3ccccc23)NC(=O)[C@H](CC(C)C)NC(=O)[C@H](CC(N)=O)NC1=O)[C@H](C)O`, for which the “area under concentration-response curve” value in assay [1] came to 575; in assay [2], 425; in assay [3] it was 546.
The corresponding values for `CC[N+](CC)(CC)CCOc1cccc(OCC[N+](CC)(CC)CC)c1OCC[N+](CC)(CC)CC` are 472, 412 and 474.
In the same order, the values of `CCCCCCCCCCCC(CC1OC(=O)C1CCCCCC)OC(=O)C(CC(C)C)NC=O` (centres undefined) are 517, 474 and 336.
On to `CC(NCCc1ccc(O)cc1)C(O)c1ccc(O)cc1` (centres undefined), for which the “area under concentration-response curve” value in assay [1] was determined as 592; in assay [2] it was 523; in assay [3], 496.
